Source: patent publication US6608082B1, “Treatment of erectile dysfunction using isoquinoline compound melanocortin receptor ligands” (Lion Bioscience AG, priority 1998, dated 2003)
pIC50: −log10 of the molar value. Like-named read-outs stand apart in the source and are kept apart here. One block for each compound: values may come before it.

Key:
MCR-3 = target: T1, MCR-3 (Homo sapiens, UniProt P41968); experiment: Melanocortin receptor binding assay, competition with 125I-HP 467, HEK 293 cells expressing hMCR-3; settings: binding to MCR-3, HEK 293 cells; read-out: MC-3 IC50
T1 construct: expressed in transfected cells; host or cells: HEK 293
T1 sequence (P41968 whole entry): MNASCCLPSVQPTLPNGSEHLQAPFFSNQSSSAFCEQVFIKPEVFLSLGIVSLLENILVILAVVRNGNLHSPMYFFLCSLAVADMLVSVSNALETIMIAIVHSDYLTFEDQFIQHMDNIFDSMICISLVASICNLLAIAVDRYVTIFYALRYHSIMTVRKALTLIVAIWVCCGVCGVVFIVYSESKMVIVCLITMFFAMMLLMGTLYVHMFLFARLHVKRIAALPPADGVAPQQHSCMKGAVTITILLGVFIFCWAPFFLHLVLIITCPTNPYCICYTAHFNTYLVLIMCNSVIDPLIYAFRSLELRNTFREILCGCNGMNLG
Source text: (§1) All cell culture media and reagents were obtained from GibcoBRL (Gaithersburg Md.), except for COSMIC CALF SERUM (HyClone; Logan Utah). HEK-293 cell lines were transfected with the human MC receptors hMCR-1, hMCR-3, and hMCR-4 (Gantz et al., Biochem. Biophys. Res. Comm. 200:1214-1220 (1994); Gantz et al., J. Biol. Chem. 268:8246-8250 (1993); Gantz et al. J. Biol. Chem. 268:15174-15179 (1993); Haskell-Leuvano et al., Biochem. Biophys. Res. Comm. 204:1137-1142 (1994); each of which is incorporated herein by reference). Vectors for construction of an hMCR-5 expressing cell line were obtained, and a line of HEK 293 cells expressing hMCR-5 was constructed (Gantz, supra, 1994). hMCR-5 has been described previously (Franberg et al., Biochem. Biophys. Res. Commun. 236:489-492 (1997); Chowdhary et al., Cytogenet. Cell Genet. 68:1-2 (1995); Chowdhary et al., Cytogenet. Cell Genet. 68:79-81 (1995), each of which is incorporated herein by reference). HEK 293 cells were maintained in DMEM, 25 mM HEPES, 2 mM glutamine, non-essential amino acids, vitamins, sodium pyruvate, 10% COSMIC CALF SERUM, 100 units/ml penicillin, 100 μg/ml streptomycin and 0.2 mg/ml G418 to maintain selection.
(§2) Before assaying, cells were washed once with phosphate buffered saline (“PBS”; without Ca^2+ and Mg^2+), and stripped from the flasks using 0.25% trypsin and 0.5 mM EDTA. Cells were suspended in PBS, 10% COSMIC CALF SERUM and 1 mM CaCl2. Cell suspensions were prepared at a density of 2×10^4 cells/ml for HEK 293 cells expressing hMCR-3, hMCR-4 or hMCR-5, and 1×10^5 cells/ml for HEK 293 cells expressing hMCR-1. Suspensions were placed in a water bath and allowed to warm to 37° C. for 1 hr.
(§3) Binding assays were performed in a total volume of 250 μl for HEK 293 cells. Control and test compounds were dissolved in distilled water. ^125I-HP 467 (50,000 dpm) (2000 Ci/mmol) (custom labeled by Amersham; Arlington Heights Ill.) was prepared in 50 mM Tris, pH 7.4, 2 mg/ml BSA, 10 mM CaCl2, 5 mM MgCl2, 2 mM EDTA and added to each tube. To each tube was added 4×10^3 HEK 293 cells expressing hMCR-3, hMCR-4 or hMCR-5, or 2×10^4 cells expressing hMCR-1. Assays were incubated for 2.5 hr at 37° C.
(§4) GF/B filter plates were prepared by soaking for at least one hour in 5 mg/ml BSA and 10 mM CaCl2. Assays were filtered using a Brandel 96-well cell harvester (Brandel Inc.; Gaithersburg, Md.). The filters were washed four times with cold 50 mM Tris, pH 7.4, the filter plates were dehydrated for 2 hr and 35 μl of MICROSCINT was added to each well. Filter plates were counted using a Packard Topcount (Packard Instrument Co.) and data analyzed using GraphPad PRISM v2.0 (GraphPad Software Inc.; San Diego Calif.) and Microsoft EXCEL v5.0a (Microsoft Corp.; Redmond Wash.).
(§5) To assay isoquinoline compounds, binding assays were performed in duplicate in a 96 well format. HP 467 was prepared in 50 mM Tris, pH 7.4, and ^125I-HP 467 was diluted to give 100,000 dpm per 50 μl. An isoquinoline compound, synthesized as described in Example I, was added to the well in 25 μl aliquots. A 25 μl aliquot of ^125I-HP 467 was added to each well. A 0.2 ml aliquot of suspended cells was added to each well to give the cell numbers indicate above, and the cells were incubated at 37° C. for 2.5 hr. Cells were harvested on GF/B filter plates as described above and counted.
(§6) Some of the isoquinoline compounds were further tested for binding to MCR-3 and MCR-5.

MCR-5 = target: T2, MCR-5 (Homo sapiens, UniProt P33032); experiment: Melanocortin receptor binding assay, competition with 125I-HP 467, HEK 293 cells expressing hMCR-5; settings: binding to MCR-5, HEK 293 cells; read-out: MC-5 IC50
T2 construct: expressed in transfected cells; host or cells: HEK 293
T2 sequence (P33032 whole entry): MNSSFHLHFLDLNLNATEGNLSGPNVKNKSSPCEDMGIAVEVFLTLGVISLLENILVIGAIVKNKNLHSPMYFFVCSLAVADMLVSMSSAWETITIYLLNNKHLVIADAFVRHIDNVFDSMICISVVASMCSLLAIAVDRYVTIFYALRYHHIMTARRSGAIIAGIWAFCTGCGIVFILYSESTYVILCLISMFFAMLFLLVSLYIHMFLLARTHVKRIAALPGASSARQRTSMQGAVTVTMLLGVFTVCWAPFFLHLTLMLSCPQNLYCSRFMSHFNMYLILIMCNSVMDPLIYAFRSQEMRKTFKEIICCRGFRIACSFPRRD
Source text: as §1, §2, §3, §4, §5, §6

TNF-α = experiment: Reduction of lipopolysaccharide-induced tumor necrosis factor levels in mice; format: in vivo, BALB/c female mice; settings: IP, plasma 90 or 105 minutes after LPS, mean ± SEM; for % TNF-α Inhibtion, IP 30: 30 μg per mouse; for % TNF-α Inhibtion, IP 300: 300 μg per mouse
Procedure: BALB/c female mice weighing approximately 20 g were placed into a control group and a treated group. Five mg/kg of LPS in 0.9% saline was administered (100 μl to give 100 μg LPS per mouse) by intraperitoneal (IP) injection to all mice. Mice in the treatment group received either 30, 100, 300 or 600 μg of various isoquinoline compounds per mouse in a volume of 100 μl of PBS. Control mice received 100 μl of saline alone. One minute after initial injections all mice received the LPS injection. As a positive control, 100 μg of HP 228 was injected per mouse.
Blood samples were collected from the orbital sinus of treated and control mice 90 minutes or 105 minutes after LPS administration. The plasma was separated by centrifugation at 3000×g for 5 min and stored at −20° C. Samples were thawed and diluted, if TNF-α concentration was greater than 3200 pg/ml, with PBS containing 1% bovine serum albumin, 10% donor horse serum, 1% normal mouse serum, 0.05% TWEEN-20 and 0.05% thimerosal. A 100 μl sample of plasma was assayed by ELISA for TNF-α. Briefly, ELISA plates were coated with hamster anti-mouse TNF-α antibody (Genzyme; Cambridge Mass.). Samples or known concentrations of TNF-α were added to the coated plates and incubated for 2 hr at 37° C. Plates were washed and subsequently incubated with biotinylated rabbit anti-mouse TNG-α for 1 hr at 37° C. Plates were washed and incubated with streptavidin-HRP for 1 hr at 37° C., and HRP activity was detected with hydrogen peroxide and o-phenylenediamine (OPD) using standard immunoassay procedures.
The mean (±SEM) TNF-α level in five mice from each group was determined and the percent reduction in TNF-α levels was calculated.

IL-10 = experiment: Increasing levels of IL-10 in mice (plasma ELISA); format: in vivo; settings: IP, mouse plasma, 90 or 105 minutes; for % IL-10 Induction, IP 30: 30 μg per mouse; for % IL-10 Induction, IP 300: 300 μg per mouse
Procedure: Isoquinoline compounds were administered intraperitoneally to mice in doses of 30, 100 or 300 μg/mouse or orally in doses of 300 or 600 μg/mouse. Levels of IL-10 were measured 90 or 105 minutes after administration as indicated. Samples were collected and diluted, when appropriate, as described in Example VI. A 100 μl sample of plasma was assayed by ELISA for IL-10. Briefly, ELISA plates were coated with rat anti-mouse IL-10 monoclonal antibody (Pharmingen; San Diego Calif.). Samples or known concentrations of IL-10 were added to the coated plates and incubated for 2 hr at 37° C. Plates were washed and incubated with biotinylated rat anti-mouse IL-10 (R&D Systems; Minneapolis Minn.) for 1 hr at 37° C. Plates were washed and incubated with streptavidin-HRP 30 min at 37° C., and HRP activity was detected with hydrogen peroxide and TMB using standard immunoassay procedures.

[1] = tested on: arachidonic acid induced dermal inflammation; experiment: Arachidonic acid induced dermal inflammation (ear thickness); format: in vivo, Female BALB/c mice; settings: administered orally; TRG 2405-241 600 μg/mouse, indomethacin 1 mg/mouse; FIG. 2
Procedure: Female BALB/c mice (17-22 g) were used and administered the test isoquinoline compounds or positive control compounds 30 to 60 min prior to topical application of arachidonic acid. Indomethacin and HP 228 were used as positive controls. Compounds were administered orally (p.o.) or intraperitoneally (i.p.). Initial ear thickness (left and right) was measured using spring loaded micro-calipers. Arachidonic acid was applied to mice anesthetized with a cocktail of ketamine/xylazine (7.0 mg/ml and 0.6 mg/ml, respectively) administered i.p. (300 μl/mouse). Utilizing a micro-pipette, 20 μl of arachidonic acid solution (100 mg/ml ethanol or acetone) was applied to the right ear (10 μl to inner and 10 μl to outer surfaces of […] for a total of 2 mg arachidonic acid per right ear), and 20 μl of vehicle (ethanol or acetone) was applied to the left ear. Mice were returned to their cages to recover. Mice were again anesthetized 50 min after arachidonic acid application and their ears measured.
Dermal inflammation was determined by subtracting the difference of the vehicle treated left ear (L60−L0) from the difference of the arachidonic acid treated right ear (R60−R0). Ear thickness measurements were averaged for each group, and the responses in the vehicle treated control group (Cr; saline or PBS) were subtracted from the response noted in the isoquinoline compound treated group (Tr) to give the relative inflammatory response for each treatment group compared to the control group. The percent inhibition is defined by the equation: % inhibition=(Cr−Tr)/(Cr)×100.

MCR-1 = target: T3, MCR-1 (Homo sapiens, UniProt Q01726); experiment: Melanocortin receptor binding assay, competition with 125I-HP 467, HEK 293 cells expressing hMCR-1; settings: for pIC50: read-out: MC-1 IC50; for % Disp. MC-1 10 μM: displacement of 125I-HP 467 at 10 μM isoquinoline compound
T3 construct: expressed in transfected cells; host or cells: HEK 293
T3 sequence (Q01726 whole entry): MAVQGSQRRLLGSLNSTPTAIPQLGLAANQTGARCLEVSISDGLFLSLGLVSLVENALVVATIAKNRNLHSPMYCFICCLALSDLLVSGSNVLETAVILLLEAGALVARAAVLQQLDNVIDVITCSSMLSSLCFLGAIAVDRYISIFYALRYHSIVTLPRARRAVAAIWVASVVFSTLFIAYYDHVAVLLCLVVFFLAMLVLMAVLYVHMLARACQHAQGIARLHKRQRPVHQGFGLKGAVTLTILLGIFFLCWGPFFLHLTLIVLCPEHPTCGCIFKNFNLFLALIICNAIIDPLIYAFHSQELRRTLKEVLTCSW
Procedure, shortened: (§7)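 Test compounds compete on intact HEK 293 cells carrying hMCR-1 (2×10^4 per tube) or hMCR-4 (4×10^3 per tube), suspended in PBS, 10% calf serum, 1 mM CaCl2.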

MCR-4 = target: T4, MCR-4 (Homo sapiens, UniProt P32245); experiment: Melanocortin receptor binding assay, competition with 125I-HP 467, HEK 293 cells expressing hMCR-4; settings: read-out: MC-4 IC50
T4 construct: expressed in transfected cells; host or cells: HEK 293
T4 sequence (P32245 whole entry): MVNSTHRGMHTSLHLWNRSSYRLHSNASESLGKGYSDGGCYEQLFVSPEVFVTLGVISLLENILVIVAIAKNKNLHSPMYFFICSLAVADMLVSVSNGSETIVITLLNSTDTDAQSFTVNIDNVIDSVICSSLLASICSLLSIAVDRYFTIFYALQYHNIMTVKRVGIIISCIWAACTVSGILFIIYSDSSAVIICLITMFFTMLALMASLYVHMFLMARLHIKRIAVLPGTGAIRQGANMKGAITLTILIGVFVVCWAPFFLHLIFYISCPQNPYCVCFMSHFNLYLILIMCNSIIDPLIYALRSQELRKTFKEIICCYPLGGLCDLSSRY
Procedure, shortened: as §7

[2] = inhibition of binding of 125I-HP 467, HEK 293 cells expressing MCR-1, TRG 2414 library
[3] = inhibition of binding of 125I-HP 467, HEK 293 cells expressing MCR-4, TRG 2414 library
[4] = TRG 2406 and TRG 2407 libraries, inhibition of binding of 125I-HP 467
[5] = competition with 125I-HP 467, HEK 293 cells expressing MCR-1
[6] = competition with 125I-HP 467, HEK 293 cells expressing MCR-4

pIC50 (MCR-3): 4.68 | pIC50 (MCR-5): 5.38
Compound: CCNc1ccc(C2C(CNC3CCCC3)c3ccccc3CN2CCCCC(CN)NC)cc1 (stereo not shown) [TRG 2407-67]
% TNF-α Inhibtion, IP 30 (TNF-α): 8 ± 14% | % TNF-α Inhibtion, IP 300 (TNF-α): 73 ± 3 % | % IL-10 Induction, IP 30 (IL-10): −3 ± 15% | % IL-10 Induction, IP 300 (IL-10): 29 ± 8%

Compound: COc1ccc2c(c1)c(CC(=O)O)c(C)n2C(=O)c1ccc(Cl)cc1 [indomethacin, reference compound]
inhibition of arachidonic acid induced dermal inflammation [1]: inhibition of arachidonic acid induced dermal inflammation

Compound: CNC(CN)CCCCN1Cc2ccccc2C(CNC2CCCCC2)C1c1ccc(OC)c(S(=O)(=O)O)c1 (stereo not shown) [TRG 2405-268]
% Disp. of 125I-HP 467 (first of duplicate) (MCR-1; 10 μM isoquinoline compound, HEK 293 cells expressing MCR-1, duplicate 1): 0% | % Disp. of 125I-HP 467 (second of duplicate) (MCR-1; 10 μM isoquinoline compound, HEK 293 cells expressing MCR-1, duplicate 2): 3.6% | % TNF-α Inhibtion, IP 30 (TNF-α): −58 ± 18% | % TNF-α Inhibtion, IP 300 (TNF-α): 9 ± 23% | % IL-10 Induction, IP 30 (IL-10): −3 ± 16% | % IL-10 Induction, IP 300 (IL-10): 6 ± 17%

pIC50 (MCR-1; [2]): 4.63 | pIC50 (MCR-4; [3]): 4.57
Compound: CC(C)Cc1ccc(C(C)CNC(CN)CCCCN2Cc3ccccc3C(CNC3CCCCC3)C2c2cc(C(F)(F)F)cc(C(F)(F)F)c2)cc1 (stereo not shown) [TRG 2414-80]

pIC50 (MCR-1; TRG 2405 section, inhibition of binding of 125I-HP 467, HEK 293 cells expressing MCR-1): 4.99 | % Disp. MC-1 10 μM (MCR-1; first of duplicate): 63.7% | % Disp. MC-1 10 μM (MCR-1; second of duplicate): 57.4% | pIC50 (MCR-4; TRG 2405 section, inhibition of binding of 125I-HP 467, HEK 293 cells expressing MCR-4): 5.05
Compound: CNC(CN)CN1Cc2ccccc2C(CNC2CCCCC2)C1c1ccc(C(F)(F)F)cc1 (stereo not shown) [TRG 2405-148]

pIC50 (MCR-1; [4]): 5.00 | pIC50 (MCR-4; [4]): 5.04
Compound: CNC(CN)CCCCN1Cc2ccccc2C(CNCc2cccc(C(F)(F)F)c2)C1c1ccc(Cl)cc1Cl (stereo not shown) [TRG 2407-17]

pIC50 (MCR-1; [2]): 5.56 | pIC50 (MCR-4; [3]): 5.17
Compound: NCC(CCCCN1Cc2ccccc2C(CNC2CCCCC2)C1c1ccc(Oc2ccccc2)cc1)NCCc1ccccc1 (mixture of isomers) [TRG 2414-158]

pIC50 (MCR-1; [4]): 5.90 | pIC50 (MCR-4; [4]): 6.10
Compound: CCNc1ccc(C2C(CNCc3ccccc3C(F)(F)F)c3ccccc3CN2CCCCC(CN)NC)cc1 (stereo not shown) [TRG 2407-53]

pIC50 (MCR-1; [5]): 6.77 | pIC50 (MCR-4; [6]): 5.74
Compound: CCCCNc1ccc(C2C(CNCCc3ccccc3)c3ccccc3CN2CCCCC(CN)NCc2ccccc2)cc1 (stereo not shown) [TRG 2411-80]

Compound: COc1ccc(CNC(CN)CCCCN2Cc3ccccc3C(CNCCc3ccccc3)C2c2cccc(C(F)(F)F)c2)cc1 (stereo not shown) [TRG 2421-42]
pIC50 (MCR-1; inhibition of binding of 125I-HP 467, HEK 293 cells expressing MCR-1): 5.67 | pIC50 (MCR-4; inhibition of binding of 125I-HP 467, HEK 293 cells expressing MCR-4): 5.76

pIC50 (MCR-1; [5]): 6.66 | pIC50 (MCR-4; [6]): 5.95
Compound: CCNc1ccc(C2C(CNC3CCCCC3)c3ccccc3CN2CCCC[C@@H](CN)NCCC2CCCCC2)cc1 (stereo partly shown) [TRG 2411-58]
